The test system of this assay is Vero cells. Put plainly: In vitro cytotoxicity test, MTT assay on Vero cell line. Particulars: for IC50: MTT assay. Format: cell-based. The method, then:
The in vitro cytotoxicity test was conducted using the 3-(4,5-dimethylthiazol-2-yl)2,5-diphenyltetrazolium bromide (MTT) assay method on Vero cell line culture using the Anderson et al.'s modified method.
The cell was removed from the cryo medium. Then, the cell was thawed at 37°C. The liquid cell was subsequently transferred to the tube and a culture medium was added to a volume of 10 mL. Then, the suspension was centrifuged for 15 minutes so that it would form cell pellets. The supernatant was removed and 1 mL of culture medium was added to the cell pellets. Finally, the suspension was transferred to the Petri dish and incubated in the incubator with 5% of CO2 at 37°C.
The medium of Vero cell culture was removed, and then the cell was washed using a PBS solution with a volume of PBS ± 1/2 of the initial medium volume. This step was done twice and 1 mL of trypsin 0.25% was added. Subsequently, the cell was incubated in the CO2 incubator at 37°C for 3 minutes. Then, the cell was resuspended using 2 mL of culture medium and PBS solution was added up to 10 mL. The suspension was centrifuged for 15 minutes so that it formed pellets. Pellets were added with 1 mL of culture medium and resuspended. Take 10 μL of the cell suspension and density of cells was calculated.
Then, the cell was added with culture medium to 10 mL. A total of 100 μL of such suspensions was transferred into each well of the 96-well microplate, but three of the wells were emptied as medium controls. Subsequently, the microplate was incubated in a 5% CO2 incubator at 37°C.
Each hydroxyxanthone derivative compound was dissolved in DMSO, and a variety of concentrations were prepared in the medium. Each concentration of the testing compound was added into the 96-well microplate triplicately. Cell control and medium control were not given a testing compound solution. The medium control remained blank, while the cell control contained culture medium only. […] Then, the cell was incubated in a 5% CO2 incubator at 37°C for 24 hours.
After the cell was incubated for 24 hours, the medium was discarded and washed with PBS. Then, each well was added with 100 μL of 5 mg/mL of MTT solution. The 96-well microplate was incubated again in the incubator of CO2 at 37°C for 4 hours. Then, 100 μL of 10% of SDS in 0.01 MHCl was added. The cells were placed in a dark room at room temperature for 24 hours.
The absorbance was measured using the enzyme-linked immunosorbent assay (ELISA) reader at 595 nm wavelength. The cytotoxicity test on the Vero cells was done by calculating the percentage of Vero cell inhibition of the absorption value of the test compound, cell control, and medium control. The cytotoxic effect was expressed as IC50. The IC50 value was obtained from the probit analysis by using SPSS software (IBM Corp., Chicago). The degree of selectivity was expressed as a selectivity index. The selectivity index was obtained from the ratio between the IC50 cytotoxic effect on Vero cells and IC50 antiplasmodial activity on Plasmodium. A compound is said to be safe if the value of the selectivity index is >10 [20].

Usually IC50 stands for the concentration needed to halve the response being measured. Low values mean higher potency, high ones lower potency. For orientation: inhibition means the change of the read-out against control, counted positive when it falls. `O=c1c2c(O)cccc2oc2cc(O)cc(O)c12` [HX1, 1,6,8-trihydroxyxanthone] showed an IC50 (24 hours incubation) of 3.39 ± 0.435 mM; an IC50 (Chlorocebus sabaeus, Vero, 24 h, 24 hours incubation) of 3.28 mM; a concentration for half-maximal inhibition (IC50) (Chlorocebus sabaeus, Vero) of 802 µg/mL. For the same molecule, the inhibition at 255.94 µM (Chlorocebus sabaeus, Vero, 24 h, 255.94 μM, read-out: Vero cell growth inhibition after 24 hours incubation) was -50.3 ± 17.2%. Besides, for the setting “Chlorocebus sabaeus, Vero, 24 h, 511.88 μM, read-out: Vero cell growth inhibition after 24 hours incubation”, the inhibition at 511.88 µM was -4.13 ± 8.21%. Moreover, where the note is “Chlorocebus sabaeus, Vero, 24 h, 1023.75 μM, read-out: Vero cell growth inhibition after 24 hours incubation”, the inhibition at 1023.75 µM was 15.9 ± 8.24%. In addition, the inhibition at 2047.5 µM (Chlorocebus sabaeus, Vero, 24 h, 2047.50 μM, read-out: Vero cell growth inhibition after 24 hours incubation) came out at 28 ± 5.69%. In addition, the inhibition at 4095 µM (Chlorocebus sabaeus, Vero, 24 h, 4095.00 μM, read-out: Vero cell growth inhibition after 24 hours incubation) came out at 45.9 ± 5.51%. Further, the inhibition at 8190.01 µM (Chlorocebus sabaeus, Vero, 24 h, 8190.01 μM, read-out: Vero cell growth inhibition after 24 hours incubation) came out at 89.4 ± 1.9%. Besides, the “Selectivity index (over strains 3D-7 and FCR-3)” value (cytotoxicity/antiplasmodium ratio on P. falciparum 3D-7 and FCR-3) is given as “more than 10”. In addition, the “Selectivity index 3D-7” value (ratio IC50 on Vero cell/IC50 on P. falciparum 3D-7) was 556.54. Moreover, for the setting “ratio IC50 on Vero cell/IC50 on P. falciparum FCR-3”, the “Selectivity index FCR-3” value is 502.20.

The record behind these values is article PMC8026324, “In Vitro Antiplasmodial, Heme Polymerization, and Cytotoxicity of Hydroxyxanthone Derivatives” (Journal of Tropical Medicine, 2021).
